Data reported in patent US10307418B2, “Azole pharmaceutical formulations for parenteral administration and methods for preparing and using the same as treatment of diseases sensitive to azole compounds” (Platform Brightworks Two, Ltd., priority 2010, dated 2019).
Converted amounts (≈) assume the structure as drawn. Read-outs that look alike come from different tables or passages of the source.

Experiments:
[1] = in vivo; details: both, Swiss Webster, mouse, plasma, iv, 5 mg/kg
Procedure: Swiss Webster mice were used for pharmacokinetic studies of ITZA and its analogs. The dilation of the vein was accomplished by warming up the mice using a heat lamp. […] Mice were allowed to recover and blood samples were obtained through cardiac puncture under general anesthesia with Isoflurane/oxygen by vaporizer at various time points. Plasma was obtained by centrifugation of blood sample at 3,200 rpm for 5 min. at 4° C. Plasma proteins were precipitated by adding acetonitrile (twice the volume of plasma). The mixture was vortexed for 30 seconds and centrifuged for 5 min. at 14,000 rpm. The supernatant was saved and was injected into the HPLC to determine the respective drug concentrations.
Unless specified, the analogous experiments were performed using POSA as an alternative to ITZA; Swiss Webster mice of both sexes with a body weight of 25-30 g were used for the in vivo pharmacology experiments (Harlan-Sprague-Dawley, Houston, Tex.). The animals were allowed a minimum of 7 days after arrival to accommodate to the new environment and allowed free access to commercial feed and tap water prior to and during the experimentation period. The animals were housed in an Association for the Assessment and Accreditation of Laboratory Animal Care International (AAALAC)-approved facility that meets the requirements of the USDA, NIH, and DHHS.
The ITZA dose of 5 mg/kg BW was determined to be a suitable test dose that could be administered to the mice as a slow (3-4 min) IV bolus injection without requiring sedation, but could be performed with only minimal physical restraint of the animals in a standard funnel-type cage.
The ITZA was formulated in the H3 solvent system described above as the preferred solvent to a stock concentration of 4-5 mg/mL and then diluted with NS (ratio 1:1) so the intended dose (5.0 mg/kg BW) could be injected in a tail vein in a total volume of approximately 100 μL. […] No sedative premedication was used for the mice in this experiment to avoid the possible induction of microsomal liver enzymes that could modify ITZA metabolism. Thus, the animals were unanesthetized, being only physically restrained during and immediately following the drug injection.
Blood samples (0.5-1.0 mL) were drawn through cardiac puncture into heparinized tubes at selected time points prior to the drug infusion (“blank”), and from 5 min to 1 hour after drug injection for determination of ITZA concentrations, and for 5 min to about 7 hrs in the POSA experiment. The mice were exposed to 2% -4% isoflurane for general anesthesia. Blood samples were obtained through cardiac puncture and immediately deposited in heparinized microcentrifuge tubes.

[2] = system: Aspergillus fumigatus (Clinical Lab isolate); experiment: Mold susceptibility test, MIC; format: cell-based; details: tested range 75 μg/mL to 0.07 μg/mL, read out at 48 hrs
Procedure: Two hyaline molds were tested with a standard read out at 48 hrs:
Tested drug range: 75 μg/mL to 0.07 μg/mL
Briefly, susceptibility tests were set-up using a standardized methodology (CLSI […] standard). Drugs were diluted into RPMI-Mops medium (Yeast One Broth (Sensititer, product Y3462, Trek Diagnostic Systems, Cleveland, Ohio) Sensititer Lot number 151416SA-expiration date 2011-01). Two different strains of yeast were tested, the standardized evaluation/read out was performed at 24 hours after the start of each culture. The tests were repeated twice and all MIC (minimum inhibitory concentration) values are reported as an average of the three experiments.

[3] = Stability of ITZA/POSA in solvent vehicles (HPLC); format: physicochemical

## CCC(C)n1ncn(-c2ccc(N3CCN(c4ccc(OCC5COC(Cn6cncn6)(c6ccc(Cl)cc6Cl)O5)cc4)CC3)cc2)c1=O (stereo not shown) [ITZA, itraconazole]
[1]
  half-life: ~30 min
[2]; Aspergillus fumigatus, 48 h, read-out: MIC
  MIC: 0.6 µg/mL (≈ 0.85 µM)
[2]
  MIC: 0.3 µg/mL (≈ 0.425 µM)
[3]; 2-6 mg/mL in composite (prototype) solvent vehicles, more than three days or 72 hours at RT
  Stability (% remaining): more than 90%
[3]; H3D, 4 mg/mL, 0 hr
  Stability (%): 100%
[3]; H3D, 4 mg/mL, 2 hr
  Stability (%): 102%
[3]; H3D, 4 mg/mL, 4 hr
  Stability (%): 101%
[3]; H3D, 4 mg/mL, 8 hr
  Stability (%): 99%
[3]; H3D, 4 mg/mL, 24 hr
  Stability (%): 97%
[3]; H3D, day 0
  stability of ITZA: 100%
[3]; H3D, day 1
  stability of ITZA: 94%
[3]; H3D, day 2
  stability of ITZA: 95%
[3]; H3D, day 3
  stability of ITZA: 93%
[3]; H3D, day 4
  stability of ITZA: 94%
[3]; H3D, day 5
  stability of ITZA: 98%
[3]; H3D/5% dex., day 0
  stability of ITZA: 100%
[3]; H3D/5% dex., day 1
  stability of ITZA: 100%
[3]; H3D/5% dex., day 2
  stability of ITZA: 103%
[3]; H3D/5% dex., day 4
  stability of ITZA: 99%
[3]; H3D/5% dex., day 5
  stability of ITZA: 93%
[3]; H3D/10% Dex., day 0
  stability of ITZA: 100%
[3]; H3D/10% Dex., day 1
  stability of ITZA: 98%
[3]; H3D/10% Dex., day 2
  stability of ITZA: 98%
[3]; H3D/10% Dex., day 3
  stability of ITZA: 102%
[3]; H3D/10% Dex., day 4
  stability of ITZA: 99%
[3]; H3D/10% Dex., day 5
  stability of ITZA: 105%
[3]; H3D/sal., day 0
  stability of ITZA: 100%
[3]; H3D/sal., day 1
  stability of ITZA: 107%
[3]; H3D/sal., day 2
  stability of ITZA: 107%
[3]; H3D/sal., day 3
  stability of ITZA: 110%
[3]; H3D/sal., day 5
  stability of ITZA: 90%
[3]; H3G, day 0
  stability of ITZA: 100%
[3]; H3G, day 1
  stability of ITZA: 103%
[3]; H3G, day 2
  stability of ITZA: 100%
[3]; H3G, day 3
  stability of ITZA: 89%
[3]; H3G, day 4
  stability of ITZA: 103%
[3]; H3G, day 5
  stability of ITZA: 106%
[3]; H3G/5% Dex., day 0
  stability of ITZA: 100%
[3]; H3G/5% Dex., day 1
  stability of ITZA: 102%
[3]; H3G/5% Dex., day 2
  stability of ITZA: 109%
[3]; H3G/5% Dex., day 3
  stability of ITZA: 94%
[3]; H3G/5% Dex., day 4
  stability of ITZA: 99%
[3]; H3G/5% Dex., day 5
  stability of ITZA: 42%
[3]; H3G/10% dex., day 0
  stability of ITZA: 100%
[3]; H3G/10% dex., day 2
  stability of ITZA: 102%
[3]; H3G/10% dex., day 3
  stability of ITZA: 98%
[3]; H3G/10% dex., day 4
  stability of ITZA: 107%
[3]; H3G/10% dex., day 5
  stability of ITZA: 31%
[3]; H3G/sal., day 0
  stability of ITZA: 100%
[3]; H3G/sal., day 1
  stability of ITZA: 95%
[3]; H3G/sal., day 2
  stability of ITZA: 94%
[3]; H3G/sal., day 3
  stability of ITZA: 80%
[3]; H3G/sal., day 4
  stability of ITZA: 70%
[3]; H3G/sal., day 5
  stability of ITZA: 38%
[3]; Solvent H3G, 0 hr
  Stability (%): 100%
[3]; Solvent H3G, 2 hr
  Stability (%): 108%
[3]; Solvent H3G, 4 hr
  Stability (%): 104%
[3]; Solvent H3G, 6 hr
  Stability (%): 101%
